Data taken from the supplement of paper PMC10307832.

What was measured:
Assay in all cases: relative viability (nuclei count vs DMSO), 5 days (fraction); higher = more cells survive
SW 1573 = test system: SW 1573
Outline: (§1)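 Dosing by pin tool came one day after lung cancer cell lines were seeded in 1536-well plates, using either one drug or a fixed anchor-drug dose plus five library-drug doses (not always all listed) in √10 steps. After 5 days, nuclei were counted on 4× images. Relative viability is treated-well nuclei count divided by vehicle-well nuclei count, and values are medians of duplicate plates.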

NCI-H1793 = test system: NCI-H1793
Outline: as §1

201T = test system: 201T
Outline: as §1

NCI-H358 = test system: NCI-H358
Outline: as §1

NCI-H596 = test system: NCI-H596
Outline: as §1

EPLC-272H = test system: EPLC-272H
Outline: as §1

NCI-H2087 = test system: NCI-H2087
Outline: as §1

COR-L23 = test system: COR-L23
Outline: as §1

NCI-H460 = test system: NCI-H460
Outline: as §1

HCC-827 = test system: HCC-827
Outline: as §1

LK-2 = test system: LK-2
Outline: as §1

BEN = test system: BEN
Outline: as §1

NCI-H1651 = test system: NCI-H1651
Outline: as §1

EMC-BAC-2 = test system: EMC-BAC-2
Outline: as §1

HCC-44 = test system: HCC-44
Outline: as §1

NCI-H1915 = test system: NCI-H1915
Outline: as §1

NCI-H2126 = test system: NCI-H2126
Outline: as §1

NCI-H2347 = test system: NCI-H2347
Outline: as §1

LXF-289 = test system: LXF-289
Outline: as §1

NCI-H1650 = test system: NCI-H1650
Outline: as §1

A-427 = test system: A-427
Outline: as §1

EKVX = test system: EKVX
Outline: as §1

**Q.** Which relative viability (SW 1573; first compound 5 µM) does the source give for `O=C(O)CCCCC(CCSCc1ccccc1)SCc1ccccc1` (centres undefined) [CPI-613] + CS(=O)(=O)CCNCc1ccc(-c2ccc3ncnc(Nc4ccc(OCc5cccc(F)c5)c(Cl)c4)c3c2)o1 [Lapatinib] (partner 2 µM) here?
**A.** 1.24

**Q.** What about the relative viability (SW 1573; first compound 15.81 µM) of the same compound?
**A.** 1.06

**Q.** What about the relative viability (SW 1573; first compound 50 µM) of the same compound?
**A.** 1.13

**Q.** What about the relative viability (SW 1573; first compound 158.11 µM) of the same compound?
**A.** 1.06

**Q.** What about the relative viability (SW 1573; first compound 500 µM) of the same compound?
**A.** 1

**Q.** What about the relative viability (NCI-H1793; first compound 5 µM) of the same compound?
**A.** 0.683

**Q.** What about the relative viability (NCI-H1793; first compound 50 µM) of the same compound?
**A.** 0.732

**Q.** And the relative viability (NCI-H1793; first compound 158.11 µM)?
**A.** 0.306

**Q.** And the relative viability (NCI-H1793; first compound 500 µM)?
**A.** 0.0696

**Q.** What about the relative viability (201T; first compound 5 µM) of the same compound?
**A.** 1.09

**Q.** What about the relative viability (201T; first compound 15.81 µM) of the same compound?
**A.** 0.958

**Q.** What about the relative viability (201T; first compound 50 µM) of the same compound?
**A.** 0.953

**Q.** What about the relative viability (201T; first compound 158.11 µM) of the same compound?
**A.** 0.978

**Q.** What about the relative viability (201T; first compound 500 µM) of the same compound?
**A.** 0.972

**Q.** And the relative viability (NCI-H358; first compound 5 µM)?
**A.** 0.416

**Q.** And the relative viability (NCI-H358; first compound 15.81 µM)?
**A.** 0.436

**Q.** And the relative viability (NCI-H358; first compound 50 µM)?
**A.** 0.409

**Q.** And the relative viability (NCI-H358; first compound 158.11 µM)?
**A.** 0.296

**Q.** What about the relative viability (NCI-H358; first compound 500 µM) of the same compound?
**A.** 0.0347

**Q.** What about the relative viability (NCI-H596; first compound 5 µM) of the same compound?
**A.** 1.01

**Q.** What about the relative viability (NCI-H596; first compound 15.81 µM) of the same compound?
**A.** 1.05

**Q.** And the relative viability (NCI-H596; first compound 50 µM)?
**A.** 1.02

**Q.** And the relative viability (NCI-H596; first compound 158.11 µM)?
**A.** 1.05

**Q.** What about the relative viability (NCI-H596; first compound 500 µM) of the same compound?
**A.** 0.0407

**Q.** What about the relative viability (EPLC-272H; first compound 5 µM) of the same compound?
**A.** 0.905

**Q.** And the relative viability (EPLC-272H; first compound 15.81 µM)?
**A.** 0.828

**Q.** What about the relative viability (EPLC-272H; first compound 50 µM) of the same compound?
**A.** 0.879

**Q.** What about the relative viability (EPLC-272H; first compound 158.11 µM) of the same compound?
**A.** 1

**Q.** What about the relative viability (EPLC-272H; first compound 500 µM) of the same compound?
**A.** 0.857

**Q.** And the relative viability (NCI-H2087; first compound 5 µM)?
**A.** 1.06

**Q.** What about the relative viability (NCI-H2087; first compound 15.81 µM) of the same compound?
**A.** 0.934

**Q.** What about the relative viability (NCI-H2087; first compound 50 µM) of the same compound?
**A.** 0.72

**Q.** What about the relative viability (NCI-H2087; first compound 158.11 µM) of the same compound?
**A.** 0.525

**Q.** What about the relative viability (NCI-H2087; first compound 500 µM) of the same compound?
**A.** 0.012

**Q.** And the relative viability (COR-L23; first compound 5 µM)?
**A.** 0.826

**Q.** And the relative viability (COR-L23; first compound 15.81 µM)?
**A.** 0.969

**Q.** And the relative viability (COR-L23; first compound 50 µM)?
**A.** 0.746

**Q.** What about the relative viability (COR-L23; first compound 158.11 µM) of the same compound?
**A.** 0.459

**Q.** And the relative viability (COR-L23; first compound 500 µM)?
**A.** 0.0098

**Q.** And the relative viability (NCI-H460; first compound 5 µM)?
**A.** 0.87

**Q.** And the relative viability (NCI-H460; first compound 15.81 µM)?
**A.** 0.853

**Q.** And the relative viability (NCI-H460; first compound 50 µM)?
**A.** 0.838

**Q.** What about the relative viability (NCI-H460; first compound 158.11 µM) of the same compound?
**A.** 0.243

**Q.** And the relative viability (NCI-H460; first compound 500 µM)?
**A.** 0.0072

**Q.** And the relative viability (HCC-827; first compound 5 µM)?
**A.** 0.212

**Q.** And the relative viability (HCC-827; first compound 15.81 µM)?
**A.** 0.181

**Q.** What about the relative viability (HCC-827; first compound 50 µM) of the same compound?
**A.** 0.196

**Q.** What about the relative viability (HCC-827; first compound 158.11 µM) of the same compound?
**A.** 0.173

**Q.** And the relative viability (HCC-827; first compound 500 µM)?
**A.** 0.0605

**Q.** What about the relative viability (LK-2; first compound 5 µM) of the same compound?
**A.** 0.967

**Q.** What about the relative viability (LK-2; first compound 15.81 µM) of the same compound?
**A.** 0.864

**Q.** What about the relative viability (LK-2; first compound 50 µM) of the same compound?
**A.** 0.876

**Q.** And the relative viability (LK-2; first compound 158.11 µM)?
**A.** 0.905

**Q.** What about the relative viability (LK-2; first compound 500 µM) of the same compound?
**A.** 0.853

**Q.** And the relative viability (BEN; first compound 5 µM)?
**A.** 0.673

**Q.** And the relative viability (BEN; first compound 15.81 µM)?
**A.** 0.577

**Q.** What about the relative viability (BEN; first compound 50 µM) of the same compound?
**A.** 0.526

**Q.** What about the relative viability (BEN; first compound 158.11 µM) of the same compound?
**A.** 0.502

**Q.** What about the relative viability (BEN; first compound 500 µM) of the same compound?
**A.** 0.624

**Q.** What about the relative viability (NCI-H1651; first compound 5 µM) of the same compound?
**A.** 0.732

**Q.** What about the relative viability (NCI-H1651; first compound 15.81 µM) of the same compound?
**A.** 0.71

**Q.** What about the relative viability (NCI-H1651; first compound 50 µM) of the same compound?
**A.** 0.781

**Q.** And the relative viability (NCI-H1651; first compound 158.11 µM)?
**A.** 0.312

**Q.** And the relative viability (NCI-H1651; first compound 500 µM)?
**A.** 0.0775

**Q.** And the relative viability (EMC-BAC-2; first compound 5 µM)?
**A.** 0.827

**Q.** What about the relative viability (EMC-BAC-2; first compound 15.81 µM) of the same compound?
**A.** 0.86

**Q.** What about the relative viability (EMC-BAC-2; first compound 50 µM) of the same compound?
**A.** 0.847

**Q.** And the relative viability (EMC-BAC-2; first compound 158.11 µM)?
**A.** 0.954

**Q.** And the relative viability (EMC-BAC-2; first compound 500 µM)?
**A.** 0.0887

**Q.** What about the relative viability (HCC-44; first compound 5 µM) of the same compound?
**A.** 0.991

**Q.** What about the relative viability (HCC-44; first compound 15.81 µM) of the same compound?
**A.** 0.937

**Q.** What about the relative viability (HCC-44; first compound 50 µM) of the same compound?
**A.** 1.04

**Q.** And the relative viability (HCC-44; first compound 158.11 µM)?
**A.** 0.838

**Q.** What about the relative viability (HCC-44; first compound 500 µM) of the same compound?
**A.** 0.0306

**Q.** What about the relative viability (NCI-H1915; first compound 5 µM) of the same compound?
**A.** 0.948

**Q.** What about the relative viability (NCI-H1915; first compound 15.81 µM) of the same compound?
**A.** 1.02

**Q.** What about the relative viability (NCI-H1915; first compound 50 µM) of the same compound?
**A.** 0.948

**Q.** What about the relative viability (NCI-H1915; first compound 158.11 µM) of the same compound?
**A.** 0.873

**Q.** What about the relative viability (NCI-H1915; first compound 500 µM) of the same compound?
**A.** 0.832

**Q.** And the relative viability (NCI-H2126; first compound 5 µM)?
**A.** 0.723

**Q.** What about the relative viability (NCI-H2126; first compound 15.81 µM) of the same compound?
**A.** 0.754

**Q.** What about the relative viability (NCI-H2126; first compound 50 µM) of the same compound?
**A.** 0.758

**Q.** What about the relative viability (NCI-H2126; first compound 158.11 µM) of the same compound?
**A.** 0.612

**Q.** What about the relative viability (NCI-H2126; first compound 500 µM) of the same compound?
**A.** 0.738

**Q.** And the relative viability (NCI-H2347; first compound 5 µM)?
**A.** 0.986

**Q.** What about the relative viability (NCI-H2347; first compound 15.81 µM) of the same compound?
**A.** 0.846

**Q.** And the relative viability (NCI-H2347; first compound 50 µM)?
**A.** 0.762

**Q.** And the relative viability (NCI-H2347; first compound 158.11 µM)?
**A.** 0.563

**Q.** What about the relative viability (NCI-H2347; first compound 500 µM) of the same compound?
**A.** 0.766

**Q.** And the relative viability (LXF-289; first compound 5 µM)?
**A.** 0.842

**Q.** And the relative viability (LXF-289; first compound 15.81 µM)?
**A.** 0.881

**Q.** And the relative viability (LXF-289; first compound 50 µM)?
**A.** 0.835

**Q.** And the relative viability (LXF-289; first compound 158.11 µM)?
**A.** 0.585

**Q.** And the relative viability (LXF-289; first compound 500 µM)?
**A.** 0.0115

**Q.** And the relative viability (NCI-H1650; first compound 5 µM)?
**A.** 0.584

**Q.** What about the relative viability (NCI-H1650; first compound 15.81 µM) of the same compound?
**A.** 0.662

**Q.** And the relative viability (NCI-H1650; first compound 50 µM)?
**A.** 0.719

**Q.** What about the relative viability (NCI-H1650; first compound 158.11 µM) of the same compound?
**A.** 0.082

**Q.** And the relative viability (NCI-H1650; first compound 500 µM)?
**A.** 0.023

**Q.** And the relative viability (A-427; first compound 5 µM)?
**A.** 0.974

**Q.** What about the relative viability (A-427; first compound 15.81 µM) of the same compound?
**A.** 0.94

**Q.** What about the relative viability (A-427; first compound 50 µM) of the same compound?
**A.** 1.07

**Q.** And the relative viability (A-427; first compound 158.11 µM)?
**A.** 0.996

**Q.** What about the relative viability (A-427; first compound 500 µM) of the same compound?
**A.** 0.948

**Q.** What about the relative viability (EKVX; first compound 5 µM) of the same compound?
**A.** 0.186

**Q.** What about the relative viability (EKVX; first compound 15.81 µM) of the same compound?
**A.** 0.208

**Q.** What about the relative viability (EKVX; first compound 50 µM) of the same compound?
**A.** 0.218

**Q.** What about the relative viability (EKVX; first compound 158.11 µM) of the same compound?
**A.** 0.193

**Q.** What about the relative viability (EKVX; first compound 500 µM) of the same compound?
**A.** 0.206
